These results are taken from the NIST ThermoML archive (doi:10.1016/j.jct.2006.02.008).

± gives the expanded uncertainty stated by the source.

Series [1] is described as follows: refractive index (Na D-line) (dimensionless). Conditions: 293.2 K; 101.33 kPa; Liquid; Standard Abbe refractometry.

For the compound `O=C1C=CC(=O)O1` [maleic anhydride], the Normal melting temperature (Crystal, visual observation) amounted to 52.7 ± 0.5 °C.
In general, refractive index refers to a measure of how strongly the sample bends light. In general, mass density refers to the mass of a sample divided by its volume. For the compound `CCOC(=O)c1ccccc1C(=O)OCC` [diethyl phthalate], the refractive index in series [1] worked out at 1.5016 ± 0.0007. The mass density (293.2 K, 101.33 kPa, Liquid, Pycnometric method) came out at 1118.2 ± 1 kg/m3.
